Laboratory results as given in patent US20230338574A1, “ANTIBODY-NANOPARTICLE COMPLEXES AND METHODS FOR MAKING AND USING THE SAME” (priority 2020, published 2023).
Blank lines part the entries; values can stand above or below the molecule they belong to.

Assays:
[1] = tested on: MDA-MB-231 tumor xenograft; assay: In vivo efficacy in MDA-MB-231 tumor xenograft; design: species or system female athymic nude mice; settings: Kaplan Meier
Description: Female athymic nude mice, 6 weeks of age, were purchased from Envigo Corporation.
Human breast cancer cell lines MDA-MB-231 were purchased from ATCC and were cultured and expanded in DMEM medium supplemented with 10% FBS, 100 units/ml of penicillin and 100 μg/ml of streptomycin at 37° C. in a 5% CO2 humidified environment for a period of 2-3 weeks before harvesting for implantation. Cell viability determined by Trypan blue dye exclusion assay was >90% before implantation. 4 million MDA-MB-231 cells in 100 μl of PBS were inoculated to the right upper flank of each mouse by s.c. injection.
Tumor volume measurement was started at day 25 after tumor cell inoculation and performed twice weekly. The longest longitudinal diameter as length and the widest transverse diameter as width were measured by using a digital caliper. Tumor volume (TV) was then calculated by the formula: TV=[length×(width)^2]/2 and were analyzed in Excel.
The treatment was started when average tumor size reached ˜400 mm^3.
Mice were euthanized when tumor size reached 2000 mm^3.
After tumor-bearing mice were randomized, 0.9% saline, anti-PDL1, Irinotecan 15, albumin bound non-toxic paclitaxel (NTP), free SN-38 at 7.5 and 15 mg/kg (SN38 7.5 and 15), albumin bound SN-38 at 7.5 and 15 mg/kg (Nab 7.5 and 15), anti-PDL1 plus SN38 Nab delivered at the same time in separate injections (PDL1+Nab15), or anti-PDL1 coated albumin bound SN-38 at 7.5 and 15 mg/kg (NIC 7.5 and NIC 15) were administered. Albumin bound SN-38 (Nab) and anti-PDL1 coated SN-38 Nab (NIC) were made as described above. Drugs were diluted in 0.9% saline and administered to the athymic nude mice in 100 μl by IV injections in the tail vein. SN-38 in all forms was given at 7.5 and 15 mg/kg in a single dose.
Raw data of tumor measurements (FIG. 7A-FIG. 7K) were analyzed in Excel. Tumor growth curves, day 7 tumor response and Kaplan-Meier survival curves were plotted using GraphPad Prism 8.0 software. Data from day 7 tumor response were compared using student's t-test. P values of less than 0.05 were considered significant (FIG. 8).
In MDA-MB-231 tumor xenograft model tumor responses were determined at day 7 using the equation: {([…])/tumor size day 0}*100. Differences in tumor response were determined by student's t-test in GraphPad Prism software 8.0. Percent change above the zero line indicates tumor growth, and below the zero line indicates tumor shrinking. […]
Kaplan Meier curves for the MDA-MB-231 xenotransplant model were generated in GraphPad Prism software 8.0 and median survival was determined to be 28, 34, 30, 24.5, 30, and 42.5 for the saline, anti-PDL1, Irinotecan 15, NTP, free SN38 7.5, and free SN38 15, respectively. […]

[2] = biological target: nab-paclitaxel (Taxol) nanoparticles with SN38 (human) (UniProt P02768); assay: zeta potential (Zetasizer), nanoparticles with 2, 4, 6 or 8 mg/ml antibody
[3] = biological target: T1, SN38:NTP Nab (albumin nanoparticles made with non-toxic paclitaxel derivative and SN38) (human, UniProt P02768 25-609); assay: zeta potential (Zetasizer), SN38:NTP:STI3031 NIC against SN38:NTP Nab
T1 construct: also called SN38 Nab

Molecule: CCc1c2c(nc3ccc(OC(=O)N4CCC(N5CCCCC5)CC4)cc13)-c1cc3c(c(=O)n1C2)COC(=O)[C@]3(O)CC [Irinotecan, irinotecan]
median survival ([1]; 15 mg/kg, IV): 30

Molecule: CCc1c2c(nc3ccc(O)cc13)-c1cc3c(c(=O)n1C2)COC(=O)[C@]3(O)CC [SN38]
median survival ([1]; 7.5 mg/kg, single IV dose): 30
median survival ([1]; 15 mg/kg, IV): 42.5

Molecule: anti-PDL1: anti-PDL1 H6B1L-EM antibody (STI3031), HC/LC SEQ ID NO. 1/SEQ ID NO. 2
median survival ([1]; IV injection, dose not given): 34

antibody concentration at which zeta potential reaches its maximum [2]: 4 mg/mL
B1: anti-PDL1 H6B1L-EM antibody (STI3031) (antibody, human IgG1, lambda, V domains shown)
VH: QMQLVQSGAEVKKPGSSVKVSCKASGGTFSSYAYSWVRQAPGQGLEWMGGIIPSFGTANYAQKFQGRVTITADESTSTAYMELSSLRSEDTAVYYCARGPIVATITPLDYWGQGTLVTVSS
VL: SYVLTQPPSVSVAPGKTATIACGGENIGRKTVHWYQQKPGQAPVLVIYYDSDRPSGIPERFSGSNSGNTATLTISRVEAGDEADYYCLVWDSSSDHRIFGGGTKLTVLG
notes: also called PDL1 antibody
binding result [3]: binds
